From PubChem BioAssay (NCI)
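Briefly, cells in 96-well plates were exposed to five compound concentrations for 48 h, and endpoints were estimated by linear interpolation. GI50 marks 50% less growth. TGI is the concentration that stops growth completely.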

The molecules below were run on HS 578T breast (assay: NCI-60 cell line screen, 48 h).

SMILES | TGI [µM]
O=C(NCCOC(=O)OCCNC(=O)NC1CCCCC1)NC1CCCCC1 | > 100
C[C@]1(O)CC[C@H]2[C@@H]3CCc4cc(O)ccc4[C@H]3CC[C@@]21C | 4.98

These molecules were tested on K-562 leukemia (assay: NCI-60 cell line screen, 48 h).

SMILES | TGI [µM]
COC(=O)[C@]12CC[C@H]3CN(C(=O)OCc4ccccc4)[C@H]([C@H]31)[C@H](c1ccco1)N2 | > 100
O=C(C=P(c1ccccc1)(c1ccccc1)c1ccccc1)c1ccc(-c2cccc([N+](=O)[O-])c2)cc1 | 7.98
O=C1NC2c3c(I)sc(I)c3/C(=N\O)C2O1 (configuration not stated) | > 100
O=C(NCCOC(=O)OCCNC(=O)NC1CCCCC1)NC1CCCCC1 | > 100

What follows are molecules tested on HCT-15 colon (assay: NCI-60 cell line screen, 48 h).

SMILES | TGI [µM]
COC(=O)[C@]12CC[C@H]3CN(C(=O)OCc4ccccc4)[C@H]([C@H]31)[C@H](c1ccco1)N2 | 84.5
O=C(C=P(c1ccccc1)(c1ccccc1)c1ccccc1)c1ccc(-c2cccc([N+](=O)[O-])c2)cc1 | 12.7
O=C1NC2c3c(I)sc(I)c3/C(=N\O)C2O1 (configuration not stated) | > 100
O=C(NCCOC(=O)OCCNC(=O)NC1CCCCC1)NC1CCCCC1 | > 100
C[C@]1(O)CC[C@H]2[C@@H]3CCc4cc(O)ccc4[C@H]3CC[C@@]21C | > 100

The molecules below were run on HT29 colon (assay: NCI-60 cell line screen, 48 h).

SMILES | TGI [µM]
COC(=O)[C@]12CC[C@H]3CN(C(=O)OCc4ccccc4)[C@H]([C@H]31)[C@H](c1ccco1)N2 | > 100
O=C(C=P(c1ccccc1)(c1ccccc1)c1ccccc1)c1ccc(-c2cccc([N+](=O)[O-])c2)cc1 | 3.13
O=C1NC2c3c(I)sc(I)c3/C(=N\O)C2O1 (configuration not stated) | 33.4
O=C(NCCOC(=O)OCCNC(=O)NC1CCCCC1)NC1CCCCC1 | > 100
C[C@]1(O)CC[C@H]2[C@@H]3CCc4cc(O)ccc4[C@H]3CC[C@@]21C | > 100

What follows are molecules tested on ACHN renal (assay: NCI-60 cell line screen, 48 h).

SMILES | TGI [µM]
COC(=O)[C@]12CC[C@H]3CN(C(=O)OCc4ccccc4)[C@H]([C@H]31)[C@H](c1ccco1)N2 | > 100
O=C(C=P(c1ccccc1)(c1ccccc1)c1ccccc1)c1ccc(-c2cccc([N+](=O)[O-])c2)cc1 | 7.87
O=C1NC2c3c(I)sc(I)c3/C(=N\O)C2O1 (configuration not stated) | 33.6
O=C(NCCOC(=O)OCCNC(=O)NC1CCCCC1)NC1CCCCC1 | > 100
C[C@]1(O)CC[C@H]2[C@@H]3CCc4cc(O)ccc4[C@H]3CC[C@@]21C | > 100

These molecules were tested on SK-MEL-5 melanoma (assay: NCI-60 cell line screen, 48 h).

SMILES | TGI [µM]
COC(=O)[C@]12CC[C@H]3CN(C(=O)OCc4ccccc4)[C@H]([C@H]31)[C@H](c1ccco1)N2 | 37.3
O=C(C=P(c1ccccc1)(c1ccccc1)c1ccccc1)c1ccc(-c2cccc([N+](=O)[O-])c2)cc1 | 5.91
O=C(NCCOC(=O)OCCNC(=O)NC1CCCCC1)NC1CCCCC1 | > 100
C[C@]1(O)CC[C@H]2[C@@H]3CCc4cc(O)ccc4[C@H]3CC[C@@]21C | 11.7

These molecules were tested on SNB-75 CNS (assay: NCI-60 cell line screen, 48 h).

SMILES | TGI [µM]
O=C(C=P(c1ccccc1)(c1ccccc1)c1ccccc1)c1ccc(-c2cccc([N+](=O)[O-])c2)cc1 | 6.86
O=C1NC2c3c(I)sc(I)c3/C(=N\O)C2O1 (configuration not stated) | > 100
O=C(NCCOC(=O)OCCNC(=O)NC1CCCCC1)NC1CCCCC1 | > 100
C[C@]1(O)CC[C@H]2[C@@H]3CCc4cc(O)ccc4[C@H]3CC[C@@]21C | > 100

What follows are molecules tested on SNB-19 CNS (assay: NCI-60 cell line screen, 48 h).

SMILES | TGI [µM]
COC(=O)[C@]12CC[C@H]3CN(C(=O)OCc4ccccc4)[C@H]([C@H]31)[C@H](c1ccco1)N2 | > 100
O=C(C=P(c1ccccc1)(c1ccccc1)c1ccccc1)c1ccc(-c2cccc([N+](=O)[O-])c2)cc1 | > 100
O=C1NC2c3c(I)sc(I)c3/C(=N\O)C2O1 (configuration not stated) | 58.2
O=C(NCCOC(=O)OCCNC(=O)NC1CCCCC1)NC1CCCCC1 | > 100
C[C@]1(O)CC[C@H]2[C@@H]3CCc4cc(O)ccc4[C@H]3CC[C@@]21C | > 100

Each molecule was assayed on A498 renal (assay: NCI-60 cell line screen, 48 h).

SMILES | TGI [µM]
COC(=O)[C@]12CC[C@H]3CN(C(=O)OCc4ccccc4)[C@H]([C@H]31)[C@H](c1ccco1)N2 | 36.3
O=C(C=P(c1ccccc1)(c1ccccc1)c1ccccc1)c1ccc(-c2cccc([N+](=O)[O-])c2)cc1 | 9.11
O=C1NC2c3c(I)sc(I)c3/C(=N\O)C2O1 (configuration not stated) | > 100
O=C(NCCOC(=O)OCCNC(=O)NC1CCCCC1)NC1CCCCC1 | > 100
C[C@]1(O)CC[C@H]2[C@@H]3CCc4cc(O)ccc4[C@H]3CC[C@@]21C | 9.61

What follows are molecules tested on SN12C renal (assay: NCI-60 cell line screen, 48 h).

SMILES | TGI [µM] | GI50 [µM]
COC(=O)[C@]12CC[C@H]3CN(C(=O)OCc4ccccc4)[C@H]([C@H]31)[C@H](c1ccco1)N2 | > 100 | 
O=C(C=P(c1ccccc1)(c1ccccc1)c1ccccc1)c1ccc(-c2cccc([N+](=O)[O-])c2)cc1 | 12 | 
O=C1NC2c3c(I)sc(I)c3/C(=N\O)C2O1 (configuration not stated) | > 100 | 
O=C(NCCOC(=O)OCCNC(=O)NC1CCCCC1)NC1CCCCC1 | > 100 | 
C[C@]1(O)CC[C@H]2[C@@H]3CCc4cc(O)ccc4[C@H]3CC[C@@]21C | > 100 | 10.2

These molecules were tested on CAKI-1 renal (assay: NCI-60 cell line screen, 48 h).

SMILES | TGI [µM]
COC(=O)[C@]12CC[C@H]3CN(C(=O)OCc4ccccc4)[C@H]([C@H]31)[C@H](c1ccco1)N2 | > 100
O=C(C=P(c1ccccc1)(c1ccccc1)c1ccccc1)c1ccc(-c2cccc([N+](=O)[O-])c2)cc1 | 9.38
O=C1NC2c3c(I)sc(I)c3/C(=N\O)C2O1 (configuration not stated) | > 100
O=C(NCCOC(=O)OCCNC(=O)NC1CCCCC1)NC1CCCCC1 | > 100
C[C@]1(O)CC[C@H]2[C@@H]3CCc4cc(O)ccc4[C@H]3CC[C@@]21C | > 100

What follows are molecules tested on SK-OV-3 ovarian (assay: NCI-60 cell line screen, 48 h).

SMILES | TGI [µM]
COC(=O)[C@]12CC[C@H]3CN(C(=O)OCc4ccccc4)[C@H]([C@H]31)[C@H](c1ccco1)N2 | > 100
O=C(C=P(c1ccccc1)(c1ccccc1)c1ccccc1)c1ccc(-c2cccc([N+](=O)[O-])c2)cc1 | 18.6
O=C1NC2c3c(I)sc(I)c3/C(=N\O)C2O1 (configuration not stated) | > 100
O=C(NCCOC(=O)OCCNC(=O)NC1CCCCC1)NC1CCCCC1 | > 100
C[C@]1(O)CC[C@H]2[C@@H]3CCc4cc(O)ccc4[C@H]3CC[C@@]21C | > 100

Each molecule was assayed on CCRF-CEM leukemia (assay: NCI-60 cell line screen, 48 h).

SMILES | TGI [µM]
COC(=O)[C@]12CC[C@H]3CN(C(=O)OCc4ccccc4)[C@H]([C@H]31)[C@H](c1ccco1)N2 | > 100
O=C(C=P(c1ccccc1)(c1ccccc1)c1ccccc1)c1ccc(-c2cccc([N+](=O)[O-])c2)cc1 | 7.25
O=C1NC2c3c(I)sc(I)c3/C(=N\O)C2O1 (configuration not stated) | 80.3
O=C(NCCOC(=O)OCCNC(=O)NC1CCCCC1)NC1CCCCC1 | > 100
C[C@]1(O)CC[C@H]2[C@@H]3CCc4cc(O)ccc4[C@H]3CC[C@@]21C | 80.1

The molecules below were run on UACC-62 melanoma (assay: NCI-60 cell line screen, 48 h).

SMILES | TGI [µM] | GI50 [nM]
COC(=O)[C@]12CC[C@H]3CN(C(=O)OCc4ccccc4)[C@H]([C@H]31)[C@H](c1ccco1)N2 | > 100 | 
O=C(C=P(c1ccccc1)(c1ccccc1)c1ccccc1)c1ccc(-c2cccc([N+](=O)[O-])c2)cc1 | 15.9 | 
O=C1NC2c3c(I)sc(I)c3/C(=N\O)C2O1 (configuration not stated) | > 100 | 
O=C(NCCOC(=O)OCCNC(=O)NC1CCCCC1)NC1CCCCC1 | > 100 | 
C[C@]1(O)CC[C@H]2[C@@H]3CCc4cc(O)ccc4[C@H]3CC[C@@]21C | 37.5 | 1480

Each molecule was assayed on HOP-62 NSCLC (assay: NCI-60 cell line screen, 48 h).

SMILES | TGI [µM] | GI50 [µM]
COC(=O)[C@]12CC[C@H]3CN(C(=O)OCc4ccccc4)[C@H]([C@H]31)[C@H](c1ccco1)N2 | > 100 | 
O=C(C=P(c1ccccc1)(c1ccccc1)c1ccccc1)c1ccc(-c2cccc([N+](=O)[O-])c2)cc1 | 27.6 | 
O=C1NC2c3c(I)sc(I)c3/C(=N\O)C2O1 (configuration not stated) | > 100 | 
O=C(NCCOC(=O)OCCNC(=O)NC1CCCCC1)NC1CCCCC1 | > 100 | 
C[C@]1(O)CC[C@H]2[C@@H]3CCc4cc(O)ccc4[C@H]3CC[C@@]21C | > 100 | 18.4
